In the supplement of paper PMC8882468:

system: HCI-010 (organoid from a breast cancer xenograft); test: CTG-3D luminescence at 96 h relative to day-0 seeding control (ratio to day 0); higher = more growth / less cytotoxicity; PDxO 3D drug screen (set 2), 96 h, CTG-3D normalised to day-0 seeding control.; settings: 1 µM; days in culture: 79

| Compound | CTG-3D luminescence at 96 h |
| --- | --- |
| COc1cccc2c1C(=O)c1c(O)c3c(c(O)c1C2=O)C[C@@](O)(C(=O)CO)C[C@@H]3O[C@H]1C[C@H](N)[C@@H](O)[C@H](C)O1 [epirubicin] | 0.114 |
| CC(=O)c1c(C)c2cnc(Nc3ccc(N4CCNCC4)cn3)nc2n(C2CCCC2)c1=O [palbociclib] | 1.71 |
| O=C(c1cc(Cc2n[nH]c(=O)c3ccccc23)ccc1F)N1CCN(C(=O)C2CC2)CC1 [olaparib] | 1.98 |

same assay, conditions: 1 µM; days in culture: 86

| Compound | CTG-3D luminescence at 96 h |
| --- | --- |
| COc1cccc2c1C(=O)c1c(O)c3c(c(O)c1C2=O)C[C@@](O)(C(=O)CO)C[C@@H]3O[C@H]1C[C@H](N)[C@@H](O)[C@H](C)O1 [epirubicin] | 0.179 |
| CC(=O)c1c(C)c2cnc(Nc3ccc(N4CCNCC4)cn3)nc2n(C2CCCC2)c1=O [palbociclib] | 2.49 |
| O=C(c1cc(Cc2n[nH]c(=O)c3ccccc23)ccc1F)N1CCN(C(=O)C2CC2)CC1 [olaparib] | 2.34 |

same assay, conditions: 1 µM; days in culture: 102

| Compound | CTG-3D luminescence at 96 h |
| --- | --- |
| COc1cccc2c1C(=O)c1c(O)c3c(c(O)c1C2=O)C[C@@](O)(C(=O)CO)C[C@@H]3O[C@H]1C[C@H](N)[C@@H](O)[C@H](C)O1 [epirubicin] | 0.064 |
| CC(=O)c1c(C)c2cnc(Nc3ccc(N4CCNCC4)cn3)nc2n(C2CCCC2)c1=O [palbociclib] | 1.56 |
| O=C(c1cc(Cc2n[nH]c(=O)c3ccccc23)ccc1F)N1CCN(C(=O)C2CC2)CC1 [olaparib] | 1.26 |

same assay, conditions: 1 µM; days in culture: 164

| Compound | CTG-3D luminescence at 96 h |
| --- | --- |
| COc1cccc2c1C(=O)c1c(O)c3c(c(O)c1C2=O)C[C@@](O)(C(=O)CO)C[C@@H]3O[C@H]1C[C@H](N)[C@@H](O)[C@H](C)O1 [epirubicin] | 0.214 |
| CC(=O)c1c(C)c2cnc(Nc3ccc(N4CCNCC4)cn3)nc2n(C2CCCC2)c1=O [palbociclib] | 1.73 |
| O=C(c1cc(Cc2n[nH]c(=O)c3ccccc23)ccc1F)N1CCN(C(=O)C2CC2)CC1 [olaparib] | 1.54 |

same assay, conditions: 10 µM; days in culture: 79

| Compound | CTG-3D luminescence at 96 h |
| --- | --- |
| COc1cccc2c1C(=O)c1c(O)c3c(c(O)c1C2=O)C[C@@](O)(C(=O)CO)C[C@@H]3O[C@H]1C[C@H](N)[C@@H](O)[C@H](C)O1 [epirubicin] | 0.0313 |
| CC(=O)c1c(C)c2cnc(Nc3ccc(N4CCNCC4)cn3)nc2n(C2CCCC2)c1=O [palbociclib] | 1.47 |
| O=C(c1cc(Cc2n[nH]c(=O)c3ccccc23)ccc1F)N1CCN(C(=O)C2CC2)CC1 [olaparib] | 1.43 |

same assay, conditions: 10 µM; days in culture: 86

| Compound | CTG-3D luminescence at 96 h |
| --- | --- |
| COc1cccc2c1C(=O)c1c(O)c3c(c(O)c1C2=O)C[C@@](O)(C(=O)CO)C[C@@H]3O[C@H]1C[C@H](N)[C@@H](O)[C@H](C)O1 [epirubicin] | 0.0423 |
| CC(=O)c1c(C)c2cnc(Nc3ccc(N4CCNCC4)cn3)nc2n(C2CCCC2)c1=O [palbociclib] | 2.34 |
| O=C(c1cc(Cc2n[nH]c(=O)c3ccccc23)ccc1F)N1CCN(C(=O)C2CC2)CC1 [olaparib] | 1.68 |

same assay, conditions: 10 µM; days in culture: 102

| Compound | CTG-3D luminescence at 96 h |
| --- | --- |
| COc1cccc2c1C(=O)c1c(O)c3c(c(O)c1C2=O)C[C@@](O)(C(=O)CO)C[C@@H]3O[C@H]1C[C@H](N)[C@@H](O)[C@H](C)O1 [epirubicin] | 0.0201 |
| CC(=O)c1c(C)c2cnc(Nc3ccc(N4CCNCC4)cn3)nc2n(C2CCCC2)c1=O [palbociclib] | 1.54 |
| O=C(c1cc(Cc2n[nH]c(=O)c3ccccc23)ccc1F)N1CCN(C(=O)C2CC2)CC1 [olaparib] | 0.657 |

same assay, conditions: 10 µM; days in culture: 164

| Compound | CTG-3D luminescence at 96 h |
| --- | --- |
| COc1cccc2c1C(=O)c1c(O)c3c(c(O)c1C2=O)C[C@@](O)(C(=O)CO)C[C@@H]3O[C@H]1C[C@H](N)[C@@H](O)[C@H](C)O1 [epirubicin] | 0.0976 |
| CC(=O)c1c(C)c2cnc(Nc3ccc(N4CCNCC4)cn3)nc2n(C2CCCC2)c1=O [palbociclib] | 1.25 |
| O=C(c1cc(Cc2n[nH]c(=O)c3ccccc23)ccc1F)N1CCN(C(=O)C2CC2)CC1 [olaparib] | 0.88 |

same assay, conditions: 100 µM; days in culture: 79

| Compound | CTG-3D luminescence at 96 h |
| --- | --- |
| COc1cccc2c1C(=O)c1c(O)c3c(c(O)c1C2=O)C[C@@](O)(C(=O)CO)C[C@@H]3O[C@H]1C[C@H](N)[C@@H](O)[C@H](C)O1 [epirubicin] | -0.00605 |
| CC(=O)c1c(C)c2cnc(Nc3ccc(N4CCNCC4)cn3)nc2n(C2CCCC2)c1=O [palbociclib] | 0.772 |
| O=C(c1cc(Cc2n[nH]c(=O)c3ccccc23)ccc1F)N1CCN(C(=O)C2CC2)CC1 [olaparib] | 0.445 |

same assay, conditions: 100 µM; days in culture: 86

| Compound | CTG-3D luminescence at 96 h |
| --- | --- |
| COc1cccc2c1C(=O)c1c(O)c3c(c(O)c1C2=O)C[C@@](O)(C(=O)CO)C[C@@H]3O[C@H]1C[C@H](N)[C@@H](O)[C@H](C)O1 [epirubicin] | -0.00278 |
| CC(=O)c1c(C)c2cnc(Nc3ccc(N4CCNCC4)cn3)nc2n(C2CCCC2)c1=O [palbociclib] | 1.26 |
| O=C(c1cc(Cc2n[nH]c(=O)c3ccccc23)ccc1F)N1CCN(C(=O)C2CC2)CC1 [olaparib] | 0.309 |

same assay, conditions: 100 µM; days in culture: 102

| Compound | CTG-3D luminescence at 96 h |
| --- | --- |
| COc1cccc2c1C(=O)c1c(O)c3c(c(O)c1C2=O)C[C@@](O)(C(=O)CO)C[C@@H]3O[C@H]1C[C@H](N)[C@@H](O)[C@H](C)O1 [epirubicin] | -0.000814 |
| CC(=O)c1c(C)c2cnc(Nc3ccc(N4CCNCC4)cn3)nc2n(C2CCCC2)c1=O [palbociclib] | 0.787 |
| O=C(c1cc(Cc2n[nH]c(=O)c3ccccc23)ccc1F)N1CCN(C(=O)C2CC2)CC1 [olaparib] | 0.0517 |

same assay, conditions: 100 µM; days in culture: 164

| Compound | CTG-3D luminescence at 96 h |
| --- | --- |
| COc1cccc2c1C(=O)c1c(O)c3c(c(O)c1C2=O)C[C@@](O)(C(=O)CO)C[C@@H]3O[C@H]1C[C@H](N)[C@@H](O)[C@H](C)O1 [epirubicin] | -0.00123 |
| CC(=O)c1c(C)c2cnc(Nc3ccc(N4CCNCC4)cn3)nc2n(C2CCCC2)c1=O [palbociclib] | 0.562 |
| O=C(c1cc(Cc2n[nH]c(=O)c3ccccc23)ccc1F)N1CCN(C(=O)C2CC2)CC1 [olaparib] | 0.272 |

same assay, conditions: 625 fM; days in culture: 79

| Compound | CTG-3D luminescence at 96 h |
| --- | --- |
| COc1cccc2c1C(=O)c1c(O)c3c(c(O)c1C2=O)C[C@@](O)(C(=O)CO)C[C@@H]3O[C@H]1C[C@H](N)[C@@H](O)[C@H](C)O1 [epirubicin] | 2.12 |
| CC(=O)c1c(C)c2cnc(Nc3ccc(N4CCNCC4)cn3)nc2n(C2CCCC2)c1=O [palbociclib] | 1.88 |
| O=C(c1cc(Cc2n[nH]c(=O)c3ccccc23)ccc1F)N1CCN(C(=O)C2CC2)CC1 [olaparib] | 2.19 |

same assay, conditions: 625 fM; days in culture: 86

| Compound | CTG-3D luminescence at 96 h |
| --- | --- |
| COc1cccc2c1C(=O)c1c(O)c3c(c(O)c1C2=O)C[C@@](O)(C(=O)CO)C[C@@H]3O[C@H]1C[C@H](N)[C@@H](O)[C@H](C)O1 [epirubicin] | 2.25 |
| CC(=O)c1c(C)c2cnc(Nc3ccc(N4CCNCC4)cn3)nc2n(C2CCCC2)c1=O [palbociclib] | 2.21 |
| O=C(c1cc(Cc2n[nH]c(=O)c3ccccc23)ccc1F)N1CCN(C(=O)C2CC2)CC1 [olaparib] | 2.43 |

same assay, conditions: 625 fM; days in culture: 102

| Compound | CTG-3D luminescence at 96 h |
| --- | --- |
| COc1cccc2c1C(=O)c1c(O)c3c(c(O)c1C2=O)C[C@@](O)(C(=O)CO)C[C@@H]3O[C@H]1C[C@H](N)[C@@H](O)[C@H](C)O1 [epirubicin] | 0.986 |
| CC(=O)c1c(C)c2cnc(Nc3ccc(N4CCNCC4)cn3)nc2n(C2CCCC2)c1=O [palbociclib] | 1.15 |
| O=C(c1cc(Cc2n[nH]c(=O)c3ccccc23)ccc1F)N1CCN(C(=O)C2CC2)CC1 [olaparib] | 1.12 |

same assay, conditions: 625 fM; days in culture: 164

| Compound | CTG-3D luminescence at 96 h |
| --- | --- |
| COc1cccc2c1C(=O)c1c(O)c3c(c(O)c1C2=O)C[C@@](O)(C(=O)CO)C[C@@H]3O[C@H]1C[C@H](N)[C@@H](O)[C@H](C)O1 [epirubicin] | 1.45 |
| CC(=O)c1c(C)c2cnc(Nc3ccc(N4CCNCC4)cn3)nc2n(C2CCCC2)c1=O [palbociclib] | 1.37 |
| O=C(c1cc(Cc2n[nH]c(=O)c3ccccc23)ccc1F)N1CCN(C(=O)C2CC2)CC1 [olaparib] | 1.61 |
